Our source for the GI50 and TGI values is PubChem BioAssay (NCI).

The structures appear in SMILES notation. “And” between values parts separate entries of the source, which are not always exact repeats. Equal entries are not always repeated.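 These data come from cells grown in 96-well plates and exposed to compound for 48 hours at five concentrations. The concentration for 50% growth inhibition is given as GI50. The concentration for full growth arrest is given as TGI.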 Some results are limits rather than exact numbers.

Among the test systems are LOX IMVI melanoma; NCI-H23 lung; HOP-92 NSCLC; SNB-75 CNS; MOLT-4 leukemia; HOP-62 NSCLC; OVCAR-8 ovarian; SK-MEL-5 melanoma; SK-MEL-28 melanoma; CAKI-1 renal.
What all share (experiment): NCI tumour cell line growth inhibition, 48 h

For the compound `COc1ccccc1CNC(=O)C1c2ccccc2C(=O)N(CC(C)C)C1c1cccs1` (stereo not given), the GI50 was 27.8 µM with LOX IMVI melanoma; 25.8 µM with NCI-H23 lung; 8.15 µM in the assay on HOP-92 NSCLC; 18.1 µM in the assay with SNB-75 CNS; 14.5 µM with MOLT-4 leukemia; 40.7 µM in the assay with HOP-62 NSCLC. The GI50 in the assay with OVCAR-8 ovarian is 23.6 µM; in the assay on SK-MEL-5 melanoma, 14.7 µM; in the assay with SK-MEL-28 melanoma, 30.7 µM; in the assay on CAKI-1 renal, 18.1 µM. Moreover, the TGI was 89.1 µM with LOX IMVI melanoma; greater than 100 µM in the assay with NCI-H23 lung; 44 µM with HOP-92 NSCLC; greater than 100 µM in the assay on SNB-75 CNS; 73.9 µM with MOLT-4 leukemia; greater than 100 µM in the assay with HOP-62 NSCLC. Besides, the TGI is greater than 100 µM in the assay with OVCAR-8 ovarian, 28.9 µM in the assay on SK-MEL-5 melanoma, greater than 100 µM in the assay on SK-MEL-28 melanoma and 78.8 µM with CAKI-1 renal.

`O=[N+]([O-])c1cc(Cl)cc2c1nc(NCCO)c1ccccc12`: the TGI in the assay with LOX IMVI melanoma was greater than 100 µM; in the assay with NCI-H23 lung, greater than 80.9 µM; in the assay with HOP-92 NSCLC it was greater than 88 µM; with SNB-75 CNS it was greater than 81.7 µM; in the assay with MOLT-4 leukemia, 34 µM; with HOP-62 NSCLC it was greater than 100 µM. Besides, the TGI with OVCAR-8 ovarian is greater than 100 µM; in the assay with SK-MEL-5 melanoma it was 3.96 µM; in the assay on SK-MEL-28 melanoma, greater than 100 µM; in the assay with CAKI-1 renal, greater than 100 µM.

As to `c1ccc2cc(OCC3CO3)c(OCC3CO3)cc2c1` (stereo not given), the TGI in the assay on LOX IMVI melanoma turned out to be 12 µM; in the assay on NCI-H23 lung it was 12.8 µM; in the assay with HOP-92 NSCLC, 23.5 µM; with SNB-75 CNS it was 18.6 µM; with MOLT-4 leukemia, 16.5 µM; in the assay with HOP-62 NSCLC, 13.6 µM. The TGI in the assay with OVCAR-8 ovarian worked out at 12.2 µM; in the assay on SK-MEL-5 melanoma, 21.2 µM; in the assay on SK-MEL-28 melanoma, 26.1 µM; in the assay with CAKI-1 renal, 37.6 µM.

`COc1cccc(Cn2cc3c(c2)-c2oncc2CC3)c1`: the GI50 in the assay on LOX IMVI melanoma was 0.912 µM; with NCI-H23 lung, 0.471 µM; in the assay with HOP-92 NSCLC, 2.17 µM; in the assay on SNB-75 CNS, 0.211 µM; in the assay on MOLT-4 leukemia, 0.508 µM; in the assay with HOP-62 NSCLC, 0.528 µM. Besides, the GI50 in the assay with OVCAR-8 ovarian is 0.622 µM; with SK-MEL-5 melanoma, 0.44 µM; in the assay on SK-MEL-28 melanoma it was 0.746 µM; in the assay on CAKI-1 renal, 0.354 µM. The TGI with LOX IMVI melanoma is greater than 100 µM; with NCI-H23 lung it was greater than 80.7 µM; in the assay with HOP-92 NSCLC, 68.3 µM; with SNB-75 CNS it was 0.895 µM; in the assay with MOLT-4 leukemia, greater than 21.7 µM; with HOP-62 NSCLC, greater than 100 µM. The TGI with OVCAR-8 ovarian is greater than 69.3 µM; in the assay on SK-MEL-5 melanoma, 3.09 µM; with SK-MEL-28 melanoma it was greater than 100 µM; in the assay on CAKI-1 renal it was greater than 84.8 µM.

Regarding `BrC(Br)(Br)c1cnc2ccccc2n1`, the GI50 in the assay with LOX IMVI melanoma is 0.425 µM; in the assay on NCI-H23 lung, 3.6 µM; in the assay on HOP-92 NSCLC, 1.5 µM; in the assay on SNB-75 CNS, 2.94 µM; in the assay on MOLT-4 leukemia it was 2.46 µM; with HOP-62 NSCLC, 2.27 µM. Besides, the GI50 in the assay on OVCAR-8 ovarian was 1.76 µM; with SK-MEL-5 melanoma, 2.32 µM; in the assay with SK-MEL-28 melanoma, 1.85 µM; in the assay on CAKI-1 renal, 1.52 µM. In addition, the TGI was found to be 2.19 µM in the assay with LOX IMVI melanoma; 17.1 µM with NCI-H23 lung; 3.14 µM in the assay on HOP-92 NSCLC; 13.2 µM in the assay on SNB-75 CNS; 8.54 µM in the assay with MOLT-4 leukemia; 7.9 µM in the assay on HOP-62 NSCLC. Besides, the TGI with OVCAR-8 ovarian was found to be 4.07 µM; in the assay on SK-MEL-5 melanoma, 7.54 µM; in the assay on SK-MEL-28 melanoma, 4.24 µM; with CAKI-1 renal it was 4.41 µM.

Take `CCOC(=O)N1C/C(=C/c2ccc(OC)cc2)C(=O)/C(=C/c2ccc(OC)cc2)C1`: the GI50 in the assay on LOX IMVI melanoma is 0.979 µM; with NCI-H23 lung, 3.26 µM; with HOP-92 NSCLC, 4.97 µM; in the assay with SNB-75 CNS, 2.93 µM; in the assay with MOLT-4 leukemia, 3.99 µM; in the assay with HOP-62 NSCLC it was 2.1 µM. Also, the GI50 in the assay with OVCAR-8 ovarian is 3.49 µM; with SK-MEL-5 melanoma, 1.6 µM; in the assay with SK-MEL-28 melanoma, 2.72 µM; in the assay on CAKI-1 renal, 4.67 µM. The TGI in the assay on LOX IMVI melanoma is 2.84 µM; in the assay on NCI-H23 lung, 20.2 µM; with HOP-92 NSCLC, greater than 56.3 µM; in the assay on SNB-75 CNS it was 31.1 µM; in the assay with MOLT-4 leukemia it was greater than 100 µM; in the assay with HOP-62 NSCLC, 5.11 µM. For the same compound, the TGI in the assay on OVCAR-8 ovarian is 14.6 µM; in the assay with SK-MEL-5 melanoma it was 3.17 µM; with SK-MEL-28 melanoma, 7.84 µM; in the assay with CAKI-1 renal it was greater than 70.1 µM.

With `O=C(N=Nc1c(O)[nH]c2c(Cl)cc(Cl)cc12)c1ccncc1`, the TGI with LOX IMVI melanoma is 42.3 µM; in the assay with NCI-H23 lung, 56.5 µM; with HOP-92 NSCLC it was greater than 100 µM; with SNB-75 CNS, 95.2 µM; with MOLT-4 leukemia it was greater than 100 µM; in the assay on HOP-62 NSCLC it was 88.3 µM. Moreover, the TGI with OVCAR-8 ovarian worked out at 67.8 µM; with SK-MEL-5 melanoma, 33.4 µM; in the assay with SK-MEL-28 melanoma, 50.5 µM; with CAKI-1 renal, 39 µM.

On to `COc1ccc2[nH]c(-c3cccc(N(C)C)c3)cc(=O)c2c1`, for which the GI50 in the assay with LOX IMVI melanoma was 0.599 µM; in the assay with NCI-H23 lung it was 0.664 µM; with HOP-92 NSCLC, 3.25 µM; with SNB-75 CNS, 0.371 µM; in the assay on HOP-62 NSCLC, 0.335 µM and 0.844 µM; with OVCAR-8 ovarian it was 0.433 µM. The GI50 was 0.305 µM in the assay on SK-MEL-5 melanoma, 0.795 µM in the assay with SK-MEL-28 melanoma and 0.418 µM in the assay on CAKI-1 renal. The TGI was 50.2 µM with SNB-75 CNS; 2.71 µM and 1.56 µM in the assay on MOLT-4 leukemia; 94.2 µM in the assay on HOP-62 NSCLC; 2.48 µM and 5.56 µM in the assay with OVCAR-8 ovarian; greater than 100 µM in the assay with SK-MEL-28 melanoma; greater than 100 µM in the assay with CAKI-1 renal.

As to `Cc1ccccc1-n1c(/C=C\c2ccccn2)nc2ccccc2c1=O`, the GI50 in the assay with LOX IMVI melanoma is 15 µM; in the assay on NCI-H23 lung, 6.06 µM; in the assay on HOP-92 NSCLC, 3.32 µM; in the assay with SNB-75 CNS it was 16.9 µM; in the assay with MOLT-4 leukemia it was 6.16 µM; in the assay on HOP-62 NSCLC, 47.4 µM. Moreover, the GI50 in the assay on OVCAR-8 ovarian was 21.4 µM; with SK-MEL-5 melanoma it was 9.61 µM; in the assay with SK-MEL-28 melanoma it was 18.4 µM; with CAKI-1 renal it was 3.32 µM. In addition, the TGI was 37 µM in the assay with LOX IMVI melanoma; 57.4 µM with NCI-H23 lung; 67.1 µM with HOP-92 NSCLC; greater than 100 µM in the assay with SNB-75 CNS; 27.7 µM with MOLT-4 leukemia; greater than 100 µM with HOP-62 NSCLC. In addition, the TGI was greater than 100 µM in the assay on OVCAR-8 ovarian, 22.6 µM in the assay on SK-MEL-5 melanoma, 39.8 µM with SK-MEL-28 melanoma and 16.9 µM with CAKI-1 renal.
